Results taken from patent publication US5648365A, “Diarylalkyl piperidines useful as multi-drug resistant tumor agents” (Merrell Pharmaceuticals Inc., priority 1996, dated 1997).

Columns and labels:
MDR tumor cells [1] = test: MDR activity: synergy with vinblastine, colorimetric MTT assay; format: cell-based; conditions: for EC50: concentration required to lower the IC50 of vinblastine by 50% when both added together, 72 hr, MTT, read-out: MDR Activity ED50; for Activity Index: ratio of toxicity (IC50) and MDR activity (ED50), 4320 min
Protocol: (§1) A colorimetric assay is employed to determine the synergy between test compounds of the invention and vinblastine or adriamycin against the growth of MDR tumor cells. The assay is based on the ability of live tumor cells to reduce a tetrazoline compound, MTT (3-(4,5-dimethyl)[…])-2,5-diphenyl tetrazolium bromide, to a blue formazan product. Both the test compound and cytotoxic drug (vinblastine or adriamycin) were added to the cells growing in wells of a 96-well plate at different combinations of concentration. The cells were allowed to grow for 72 hr and, at the end of incubation, stained with MTT for 3 hr. The blue formazan product which developed, was dissolved with DMSO and the color intensity was recorded in a spectrophotometer. Based on the data, an isobologram analysis was performed. MDR activity (ED50 : μM) represents the concentration of the compound required to lower the IC50 value of vinblastine by 50% when both the compounds were added to the medium together. Cellular toxicity (IC50 : μM) represents concentration of the compound that inhibit cell growth by 50%. Activity index is the ratio of toxicity and MDR activity.

MDR tumor cells [2] = test: Cellular toxicity: inhibition of cell growth, colorimetric MTT assay; format: cell-based; conditions: concentration that inhibits cell growth by 50%, 72 hr
Protocol: as §1

Question: `COc1ccccc1CC(=O)N1CCCCC1CC(c1ccccc1)c1ccccc1` (stereo not drawn) [Example 2, 1-[2-(2,2-Diphenyl-Ethyl)-Piperidin-1-yl]-2(2-Methoxy-Phenyl)-Ethanone] was tested. Which EC50 (MDR tumor cells [1]) did it give?
Answer: The EC50 was 1.16 µM.

Question: What about the “Activity Index” value (MDR tumor cells [1]) of the same molecule?
Answer: Its value is 32.0.

Question: And the IC50 (MDR tumor cells [2])?
Answer: The IC50 was 37.5 µM.

Question: With `O=C(Cc1ccc2c(c1)OCO2)N1CCCCC1CC(c1ccccc1)c1ccccc1` (stereo not drawn) [Example 3, 2-Benzo[1,3]Dioxol-5-yl-1-[2-(2,2-Diphenylethyl)-Piperidin-1-yl]-Ethanone] as the molecule, how does the EC50 (MDR tumor cells [1]) read?
Answer: Its EC50 is 1.2 µM.

Question: What about the “Activity Index” value (MDR tumor cells [1]) of the same molecule?
Answer: Its value is 32.5.

Question: What about the IC50 (MDR tumor cells [2]) of the same molecule?
Answer: Its IC50 is 39 µM.

Question: Which results are given for `COc1ccc(CCC(=O)N2CCCCC2CC(c2ccccc2)c2ccccc2)cc1OC` (stereo not drawn) [Example 6, 3-(3,4-Dimethoxy-Phenyl)-1-[2-(2,2-Diphenylethyl)-Piperidin-1-yl]-Propan-1-one]?
Answer: EC50 (MDR tumor cells [1]): 0.46 µM; Activity Index (MDR tumor cells [1]): 47.0; IC50 (MDR tumor cells [2]): 21.6 µM

Question: Which results are given for `COc1cc(CC(=O)N2CCCCC2C(c2ccccc2)c2ccccc2)cc(OC)c1OC` (stereo not drawn) [Example 9]?
Answer: EC50 (MDR tumor cells [1]): 0.7 µM; Activity Index (MDR tumor cells [1]): 43.5; IC50 (MDR tumor cells [2]): 30.3 µM

Question: Which EC50 (MDR tumor cells [1]) does the source give for `COc1cc(CC(=O)N2CCCCC2CC(c2ccccc2)c2ccccc2)cc(OC)c1OC` (stereo not drawn) [Example 1, 1-[2-(2,2-Diphenyl-Ethyl)-Piperidin-1-yl]-2-(3,4,5-Trimethoxy-Phenyl)-Ethanone] here?
Answer: Its EC50 is 0.31 µM.

Question: And the “Activity Index” value (MDR tumor cells [1])?
Answer: The value was 109.0.

Question: What about the IC50 (MDR tumor cells [2]) of the same molecule?
Answer: The IC50 was 33.8 µM.
